According to ChEMBL document CHEMBL3580652, “Hikiamides A-C, Cyclic Pentadepsipeptides from Fusarium sp. TAMA 456” (J Nat Prod, 2015):
The source made the active and inactive calls. The rule behind the calls is not given here. Where a SMILES comes first, the peptide text is derived from it. [ ]: non-standard residue; d: D form. Hica(2S) = CC(C)C[C@H](O)C(=O)O; NMeL = CN[C@@H](CC(C)C)C(=O)O

Tests used:
[1] = tested on: ST-13; assay: Induction of mouse ST-13 cell differentiation assessed as increase in accumulation of lipid droplets in cytosol at 2 to 4 uM after 11 days by oil red o staining-based phase contrast microscopic analysis; format: functional
[2] = Upregulation of adiponectin mRNA expression in mouse ST-13 cells at 2 uM by RT-qPCR analysis relative to control; format: functional, cell-based
[3] = biological target: T1, Peroxisome proliferator-activated receptor gamma (Homo sapiens) (UniProt P37231); assay: Agonist activity at human PPARgamma ligand binding domain fused with GAL4 DNA binding domain transfected in African green monkey COS1 cells assessed as transcriptional activation after 24 hrs by Steady-Glo luciferase reporter gene assay; format: cell-based; conditions: COS-1
T1 sequence (whole entry): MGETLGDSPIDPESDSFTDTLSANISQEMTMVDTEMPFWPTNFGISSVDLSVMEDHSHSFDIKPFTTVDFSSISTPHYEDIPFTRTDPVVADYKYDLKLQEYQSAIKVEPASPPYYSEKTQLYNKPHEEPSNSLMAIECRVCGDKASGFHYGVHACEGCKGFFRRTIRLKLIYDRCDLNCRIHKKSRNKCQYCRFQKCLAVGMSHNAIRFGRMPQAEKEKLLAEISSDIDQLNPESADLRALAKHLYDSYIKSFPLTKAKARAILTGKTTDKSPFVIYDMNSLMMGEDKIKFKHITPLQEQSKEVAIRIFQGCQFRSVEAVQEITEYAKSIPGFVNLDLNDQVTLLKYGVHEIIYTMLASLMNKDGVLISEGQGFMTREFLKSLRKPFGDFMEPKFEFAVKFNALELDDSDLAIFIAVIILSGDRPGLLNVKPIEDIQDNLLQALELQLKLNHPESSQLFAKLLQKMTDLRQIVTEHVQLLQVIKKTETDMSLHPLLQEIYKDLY

Compound	Activity [1]	fold change (FC) [2]	Activity [3]
CC(C)C[C@@H]1NC(=O)[C@H](C(C)C)NC(=O)[C@H](CC(C)C)OC(=O)[C@H](Cc2ccccc2)NC(=O)[C@H](Cc2ccccc2)NC1=O (cyclo(FF[Hica(2S)]VL))	Active	5.2	Dose-dependent effect
CC(C)C[C@@H]1OC(=O)[C@H](Cc2ccccc2)NC(=O)[C@H](Cc2ccccc2)NC(=O)[C@H](CC(C)C)N(C)C(=O)[C@H](C(C)C)NC1=O (cyclo(FF[Hica(2S)]V[NMeL]))	Active	13.3	Dose-dependent effect
CC(C)C[C@@H]1OC(=O)[C@H](Cc2ccccc2)NC(=O)[C@H](Cc2c[nH]c3ccccc23)NC(=O)[C@H](CC(C)C)N(C)C(=O)[C@H](C(C)C)NC1=O (cyclo(F[Hica(2S)]V[NMeL]W))	Active	10	Dose-dependent effect
